Source: ChEMBL document CHEMBL2406964, “Caffeic acid phenethyl ester inhibits alpha-melanocyte stimulating hormone-induced melanin synthesis through suppressing transactivation activity of microphthalmia-associated transcription factor” (J Nat Prod, 2013)
Calls of active or inactive are those of the source. The calls are words filed in the database; no cut-off is given here.

Assays:
B16-F10 [1] = test: Antimelanogenic activity in mouse B16F10 cells assessed as inhibition of alpha-MSH-induced melanin production at 1 to 2 uM after 72 hrs by spectrophotometry; assay type: functional, cell-based
[2] = target: T1, Microphthalmia-associated transcription factor (Mus musculus) (UniProt Q08874); test: Inhibition of MITF binding to M-box region of TRP-2 promoter in alpha-MSH-induced mouse B16F10 cells at 1 uM after 24 hrs by Chromatin immunoprecipitation assay; assay type: cell-based; details: B16-F10
T1 sequence (whole entry): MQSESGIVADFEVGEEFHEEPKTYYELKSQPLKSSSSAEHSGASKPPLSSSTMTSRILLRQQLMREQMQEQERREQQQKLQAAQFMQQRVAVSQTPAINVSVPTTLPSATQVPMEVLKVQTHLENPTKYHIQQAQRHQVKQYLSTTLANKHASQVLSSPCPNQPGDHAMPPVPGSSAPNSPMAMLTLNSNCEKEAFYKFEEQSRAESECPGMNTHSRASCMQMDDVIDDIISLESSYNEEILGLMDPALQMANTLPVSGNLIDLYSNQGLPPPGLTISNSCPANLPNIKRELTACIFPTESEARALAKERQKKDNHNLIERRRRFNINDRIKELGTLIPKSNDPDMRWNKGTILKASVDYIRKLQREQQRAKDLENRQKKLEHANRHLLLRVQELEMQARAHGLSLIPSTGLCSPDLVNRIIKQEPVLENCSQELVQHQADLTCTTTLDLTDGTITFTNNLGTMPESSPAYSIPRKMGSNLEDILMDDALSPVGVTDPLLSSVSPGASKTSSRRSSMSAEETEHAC

B16-F10 [3] = test: Antimelanogenic activity in mouse B16F10 cells assessed as inhibition of alpha-MSH-induced MITF protein expression at 1 uM after 30 mins to 2 hrs by Western blotting analysis; assay type: functional, cell-based
[4] = target: T1, Microphthalmia-associated transcription factor (Mus musculus); test: Inhibition of MITF in mouse B16F10 cells assessed as inhibition of alpha-MSH-induced TRP1 protein expression after 48 hrs by Western blotting analysis; assay type: cell-based; details: B16-F10
B16-F10 [5] = test: Antimelanogenic activity in mouse B16F10 cells assessed as inhibition of alpha-MSH-induced intracellular melanin production after 72 hrs by spectrophotometry; assay type: functional, cell-based
[6] = target: T1, Microphthalmia-associated transcription factor (Mus musculus); test: Inhibition of MITF in mouse B16F10 cells assessed as inhibition of alpha-MSH-induced TRP2 protein expression after 48 hrs by Western blotting analysis; assay type: cell-based; details: B16-F10
[7] = target: T1, Microphthalmia-associated transcription factor (Mus musculus); test: Inhibition of MITF in mouse B16F10 cells assessed as inhibition of alpha-MSH-induced TRP2 mRNA expression after 48 hrs by RT-PCR analysis; assay type: cell-based; details: B16-F10
[8] = target: RAC-alpha serine/threonine-protein kinase (Mus musculus) (UniProt P31750); test: Inhibition of Akt phosphorylation in alpha-MSH-induced mouse B16F10 cells at 1 uM after 30 mins to 2 hrs by Western blotting analysis; assay type: cell-based; details: B16-F10
[9] = target: T1, Microphthalmia-associated transcription factor (Mus musculus); test: Inhibition of MITF binding to M-box region of tyrosinase promoter in alpha-MSH-induced mouse B16F10 cells at 1 uM after 24 hrs by Chromatin immunoprecipitation assay; assay type: cell-based; details: B16-F10
B16-F10 [10] = test: Antimelanogenic activity in mouse B16F10 cells assessed as inhibition of alpha-MSH-induced secreted melanin production after 72 hrs by spectrophotometry; assay type: functional, cell-based
[11] = target: T1, Microphthalmia-associated transcription factor (Mus musculus); test: Inhibition of MITF in mouse B16F10 cells assessed as inhibition of alpha-MSH-induced tyrosinase promoter activity after 24 hrs by luciferase reporter gene assay; assay type: cell-based; details: B16-F10
[12] = target: Glycogen synthase kinase-3 beta (Mus musculus) (UniProt Q9WV60); test: Inhibition of GSK-3beta phosphorylation in alpha-MSH-induced mouse B16F10 cells at 1 uM after 30 mins to 2 hrs by Western blotting analysis; assay type: cell-based; details: B16-F10
B16-F10 [13] = test: Inhibition of CREB phosphorylation in alpha-MSH-induced mouse B16F10 cells at 1 uM after 30 mins to 2 hrs by Western blotting analysis; assay type: cell-based
[14] = target: T2, Tyrosinase (Mus musculus) (UniProt P11344); test: Inhibition of tyrosinase in alpha-MSH-treated mouse B16F10 cells up to 100 uM after 72 hrs by L-DOPA oxidase assay; assay type: cell-based; details: B16-F10
T2 sequence (whole entry): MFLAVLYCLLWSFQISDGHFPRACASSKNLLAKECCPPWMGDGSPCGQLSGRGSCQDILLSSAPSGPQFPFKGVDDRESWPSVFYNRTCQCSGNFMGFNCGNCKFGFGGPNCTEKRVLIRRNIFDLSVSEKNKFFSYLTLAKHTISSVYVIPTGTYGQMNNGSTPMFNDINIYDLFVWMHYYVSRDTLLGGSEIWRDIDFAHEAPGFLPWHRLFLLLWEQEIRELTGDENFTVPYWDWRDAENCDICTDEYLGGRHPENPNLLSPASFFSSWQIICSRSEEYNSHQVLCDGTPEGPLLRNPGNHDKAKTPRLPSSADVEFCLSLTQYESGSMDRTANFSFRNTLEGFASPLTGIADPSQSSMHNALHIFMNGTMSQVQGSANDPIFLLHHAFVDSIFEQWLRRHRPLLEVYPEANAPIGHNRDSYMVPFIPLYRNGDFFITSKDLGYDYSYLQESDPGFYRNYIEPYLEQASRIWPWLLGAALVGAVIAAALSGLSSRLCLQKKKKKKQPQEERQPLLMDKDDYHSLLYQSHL

[15] = target: T1, Microphthalmia-associated transcription factor (Mus musculus); test: Inhibition of MITF binding to M-box region of TRP-1 promoter in alpha-MSH-induced mouse B16F10 cells at 1 uM after 24 hrs by Chromatin immunoprecipitation assay; assay type: cell-based; details: B16-F10
B16-F10 [16] = test: Antimelanogenic activity in mouse B16F10 cells assessed as inhibition of alpha-MSH-induced MITF mRNA expression at 1 uM after 30 mins to 2 hrs by RT-PCR analysis; assay type: functional, cell-based
[17] = target: T1, Microphthalmia-associated transcription factor (Mus musculus); test: Inhibition of MITF in mouse B16F10 cells assessed as inhibition of alpha-MSH-induced tyrosinase mRNA expression after 48 hrs by RT-PCR analysis; assay type: cell-based; details: B16-F10
B16-F10 [18] = test: Cytotoxicity against mouse B16F10 cells up to 2 uM after 72 hrs by MTT assay; assay type: cell-based; details: b16-f10, 72 h
[19] = target: T2, Tyrosinase (Mus musculus); test: Inhibition of tyrosinase in alpha-MSH-treated mouse B16F10 cells assessed as reduction in L-DOPA oxidase activity at 0.5 to 2 uM after 72 hrs; assay type: cell-based; details: B16-F10
[20] = target: T1, Microphthalmia-associated transcription factor (Mus musculus); test: Inhibition of MITF in mouse B16F10 cells assessed as inhibition of alpha-MSH-induced TRP1 mRNA expression after 48 hrs by RT-PCR analysis; assay type: cell-based; details: B16-F10
B16-F10 [21] = test: Antimelanogenic activity in mouse B16F10 cells assessed as inhibition of alpha-MSH-induced MITF nuclear translocation at 1 uM after 30 mins to 2 hrs by Western blotting analysis; assay type: functional, cell-based
[22] = target: T1, Microphthalmia-associated transcription factor (Mus musculus); test: Inhibition of MITF in mouse B16F10 cells assessed as inhibition of alpha-MSH-induced tyrosinase protein expression after 48 hrs by Western blotting analysis; assay type: cell-based; details: B16-F10

Chain of Glycogen synthase kinase-3 beta (Mus musculus) (Q9WV60 whole entry, looked up): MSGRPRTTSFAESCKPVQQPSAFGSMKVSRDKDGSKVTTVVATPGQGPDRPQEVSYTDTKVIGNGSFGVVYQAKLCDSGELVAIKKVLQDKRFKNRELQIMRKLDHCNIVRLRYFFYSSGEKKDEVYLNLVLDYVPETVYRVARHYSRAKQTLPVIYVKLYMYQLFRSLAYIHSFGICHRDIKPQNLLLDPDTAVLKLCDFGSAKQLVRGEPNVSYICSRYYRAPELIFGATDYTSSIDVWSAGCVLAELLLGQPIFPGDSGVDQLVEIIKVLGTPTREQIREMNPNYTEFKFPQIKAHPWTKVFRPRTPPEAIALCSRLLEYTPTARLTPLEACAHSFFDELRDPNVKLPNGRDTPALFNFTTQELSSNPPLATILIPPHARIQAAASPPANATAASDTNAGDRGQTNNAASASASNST
Chain of RAC-alpha serine/threonine-protein kinase (Mus musculus) (P31750 whole entry): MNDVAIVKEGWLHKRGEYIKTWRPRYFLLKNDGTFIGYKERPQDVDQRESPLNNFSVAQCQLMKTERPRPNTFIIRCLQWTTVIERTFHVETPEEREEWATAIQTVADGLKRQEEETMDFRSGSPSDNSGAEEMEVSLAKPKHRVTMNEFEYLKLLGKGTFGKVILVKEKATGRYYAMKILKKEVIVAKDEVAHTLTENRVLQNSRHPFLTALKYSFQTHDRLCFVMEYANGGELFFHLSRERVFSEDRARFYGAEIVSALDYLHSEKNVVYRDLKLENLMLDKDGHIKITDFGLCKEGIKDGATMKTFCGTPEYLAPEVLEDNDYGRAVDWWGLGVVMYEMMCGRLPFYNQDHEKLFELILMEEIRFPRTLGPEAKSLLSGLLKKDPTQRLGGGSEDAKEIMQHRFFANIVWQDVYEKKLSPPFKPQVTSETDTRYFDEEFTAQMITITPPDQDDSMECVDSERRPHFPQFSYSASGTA

`O=C(O)/C=C/c1ccc(O)c(O)c1` was tested. Which inhibition (B16-F10 [1]) did it give?
Its inhibition is “inactive”.

For `O=C(/C=C/c1ccc(O)c(O)c1)OCCc1ccccc1` [CAFFEIC ACID PHENETHYL ESTER], which inhibition [2] is on record?
The inhibition was “Active”.

And the inhibition (B16-F10 [3])?
The inhibition was “inactive”.

And the inhibition [4]?
Its inhibition is “Dose-dependent effect”.

What about the inhibition (B16-F10 [5]) of the same compound?
The inhibition was “Dose-dependent effect”.

What about the inhibition [6] of the same compound?
Its inhibition is “Dose-dependent effect”.

What about the inhibition [7] of the same compound?
Its inhibition is “Dose-dependent effect”.

And the inhibition [8]?
The inhibition was “inactive”.

And the inhibition [9]?
Its inhibition is “Active”.

And the inhibition (B16-F10 [10])?
Its inhibition is “Dose-dependent effect”.

And the inhibition [11]?
The inhibition was “Dose-dependent effect”.

What about the inhibition [12] of the same compound?
The inhibition was “inactive”.

What about the inhibition (B16-F10 [13]) of the same compound?
The inhibition was “inactive”.

What about the inhibition [14] of the same compound?
Its inhibition is “inactive”.

What about the inhibition [15] of the same compound?
The inhibition was “Active”.

What about the inhibition (B16-F10 [16]) of the same compound?
The inhibition was “inactive”.

And the inhibition [17]?
Its inhibition is “Dose-dependent effect”.

And the Activity (B16-F10 [18])?
The Activity was “Non-toxic”.

And the inhibition [19]?
Its inhibition is “Active”.

What about the inhibition [20] of the same compound?
Its inhibition is “Dose-dependent effect”.

What about the inhibition (B16-F10 [21]) of the same compound?
The inhibition was “inactive”.

What about the inhibition [22] of the same compound?
Its inhibition is “Dose-dependent effect”.

How did the inhibition (B16-F10 [1]) turn out when `OCCc1ccccc1` was run?
The inhibition was “inactive”.

`O=C(/C=C/c1ccccc1)OCCc1ccccc1` was tested. Which inhibition (B16-F10 [1]) did it give?
Its inhibition is “inactive”.
